According to US20250009819A1, “NOVEL PROBIOTICS AND USE THEREOF” (PBLBIOLAB CO., LTD., priority 2021, published 2025):

Columns and labels:
[1] = tested on: TNF-α; assay: TNF-α expression in LPS-treated macrophages (ELISA); assay type: cell-based, C57BL/6 mice; details: macrophages treated with lactic acid bacteria and LPS for 24 hours
Summary of the method: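 Peritoneal macrophages were elicited in male C57BL/6 mice (6 weeks) by i.p. 4% thioglycolate and harvested 96 h later. Cells at 0.5×10^6/well were treated with lactic acid bacteria plus LPS for 24 h. Cytokines in the supernatant were quantified by ELISA.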

[2] = Antioxidant activity (DPPH, in vitro); assay type: biochemical; details: DPPH 0.2 mM; lactic acid bacteria suspension 1×10^8 CFU/ml; 37° C. 20 min
Summary of the method: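 Lactic acid bacteria suspension (1×10^8 CFU/ml) or vitamin C (1 g/ml) was mixed with 0.2 mM ethanolic DPPH and incubated 20 min at 37° C. After centrifugation, supernatant absorbance at 517 nm gave the antioxidant activity.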

[3] = tested on: Clostridium difficile; assay: Clostridium difficile proliferation in gut microbiota (PCR); assay type: cell-based; details: for Gut microbiota Inhibition of difficile bacteria proliferation: human feces culture, lactic acid bacteria 1×10^6 CFU/mL, anaerobic 24 hr
Summary of the method: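 Human fecal supernatant, diluted 10,000-fold in GAM, co-cultured anaerobically 24 h with lactic acid bacteria (1×10^6 CFU/mL). C. difficile quantified by PCR on pellet DNA (95 °C 30 s; 42 cycles 95 °C 5 s/72 °C 30 s); supernatant LPS measured by ELISA.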

[4] = tested on: gut microbiota; assay: LPS production in gut microbiota (ELISA); assay type: cell-based; details: human feces culture; lactic acid bacteria 1×10^6 CFU/mL; anaerobic 24 hr
Procedure: Fresh human feces were suspended in anaerobic medium (GAM, Nissui Pharmaceutical Co., Ltd., Japan) and allowed to stand for 10 min. The supernatant was diluted with 10,000-fold anaerobic medium, 0.05 mL of the dilution was transplanted into 5 mL of freshly made anaerobic medium, and lactic acid bacteria (1×10^6 CFU/mL) were implanted and incubated anaerobically for 24 hr.

[5] = tested on: Neuropeptide Y (NPY); assay: Neuropeptide Y (NPY) expression in PC12 phaeochromocytoma cells; assay type: cell-based; details: LPS 200 ng/ml; lactic acid bacteria 1×10^4 CFU/ml; 24 hr
Procedure: PC12 cells obtained from the Korean Cell Line Bank were cultured in DMEM medium supplemented with 10% FBS and 1% antibiotics, and dispensed at 1×10^6 cells per well in a 12-well plate. Then, LPS (200 ng/ml) was added to each well along with lactic acid bacteria (1×10^4 CFU/ml) and incubated for 24 hr. The cells and supernatants were collected, sonicated and centrifuged, and the amount of NPY in the supernatant was measured by ELISA kit.

[6] = tested on: animals with intestinal and brain diseases induced by TNBS; assay: Animals with intestinal and brain diseases induced by TNBS: cognitive improvement, hippocampus; assay type: in vivo, C57BL/6 male mice; details: for Cognitive function Exploration (%) / Cognitive function Spont. alteration (%) / Concentration in the hippocampus IFN-γ / Concentration in the hippocampus IL-10 / Concentration in the hippocampus TNF-α: TNBS-treated mice, 1×10^9 CFU/mouse or sulfasalazine 50 mg/kg orally once a day for 5 days; for cognitive impairment caused by TNBS: result in words, summary of Table 18
Procedure: Indicators of this supernatant were measured using an ELISA kit (Ebioscience). […] The animal's movements were recorded, and reported as arm entries when the animal entered the arm with its hind paw, and the animal's movement was represented by an alternation, which was defined as one alternation when the animal passed through the three arms in succession. The amount of spontaneous alternation behavior was expressed as a percentage between the actual number of alternations and the maximum possible number of alternations (i.e., the total number of […] minus 2). The experiment was conducted in a box (40×40×40 cm) made so that the outside could not be seen from the inside. Two objects (A, A′) of the same shape and size were fixedly disposed in a box and the mouse was relocated to start from the center of the box. Then, the number of times the mouse made contact with the two objects was recorded for 10 minutes. After 24 hours, one of the two objects was replaced with a new object (A, B). Then, one original object and one new object were prepared, and the animal's exploration time was measured. C57BL/6 male mice (5 weeks old, 19-21 g) were divided (6 mice in each group) and acclimatized to the laboratory for 1 week. […] Meanwhile, the normal group was orally administered with 0.1 ml of physiological saline. From the next day, the mice were orally administered once a day for 5 days with lactic acid bacteria as a test sample suspended in physiological saline solution at a concentration of 1×10^9 CFU per mouse (NK210 alone (LR): 1×10^9 CFU/mouse, NK219 alone (BL): 1×10^9 CFU/mouse, NK209 alone (LL): 1×10^9 CFU/mouse, combined (MX, 210+219): NK210, 8×10^8 CFU/mouse and NK219, 2×10^8 CFU/mouse, combined (MX, 209+219) NK209, 8×10^8 CFU/mouse and NK219, 2×10^8 CFU/mouse, LR+BL+LL: NK210, 4×10^8 CFU/mouse, NK219, 2×10^8 CFU/mouse, and NK209, 4×10^8 CFU/mouse, heat treated (H—), respectively: 1×10^9 CFU/mouse). […] The day following the conclusion of sample administration, the experimental animals were sacrificed, and samples from the brain hippocampus, colon, and spleen were collected. In the Hippocampus, inflammatory indicators, such as TNF-α and IL-10, were measured using ELISA. In the colon, intestinal length and inflammatory indicators, such as TNF-α and IL-10, were measured. In the spleen, Th1 cells and Treg cells were measured by FACS (Fluorescence-Activated Cell Sorting).

Substance | Macrophage Inhibition of TNF-α expression [1] | Antioxidant activity [2] | Gut microbiota Inhibition of difficile bacteria proliferation [3] | Gut microbiota Inhibition of LPS production [4] | PC12 cell Induction of NPY expression [5] | Cognitive function Exploration (%) [6] [%] | Cognitive function Spont. alteration (%) [6] [%] | Concentration in the hippocampus IFN-γ [6] [pg/mg] | Concentration in the hippocampus IL-10 [6] [pg/mg] | Concentration in the hippocampus TNF-α [6] [pg/mg] | cognitive impairment caused by TNBS [6] | inhibiting the proliferation of intestinal Clostridium difficile ([3]; result in words, summary of Table 2)
Lactobacillus rhamnosus NK210 | ++ (strongly (++; >60-90%)) | +++ (very strongly (+++; >90%)) | +++ (very strongly (+++; >90%)) | +++ (very strongly (+++; >90%)) | +++ (very strongly (+++; >90%)) | 74.25 | 62.45 | 26.28 | 38.64 | 12.14 | improved | –
Bifidobacterium longum NK219 | +++ (very strongly (+++; >90%)) | +++ (very strongly (+++; >90%)) | +++ (very strongly (+++; >90%)) | +++ (very strongly (+++; >90%)) | ++ (strongly (++; >60-90%)) | 75.37 | 65.32 | 25.02 | 40.26 | 11.93 | improved | –
Lactococcus lactis NK209 | + (weakly (+; >20-60%)) | + (weakly (+; >20-60%)) | +++ (very strongly (+++; >90%)) | + (weakly (+; >20-60%)) | + (weakly (+; >20-60%)) | 70.20 | 58.8 | 30.81 | 35.53 | 13.54 | – | significant effect
